The values that follow come from patent US6982150B2, “System and method for identifying proteins involved in force-initiated signal transduction” (priority 2002, dated 2006).

Experiment [1] deals with Triton X-100-insoluble cytoskeletons of L-929 cells. The experiment is described as follows: Stretch-dependent GFP paxillin binding to Triton X-100-insoluble cytoskeletons (fluorescence, Western blot). Set-up: species or system Mouse. (In western blotting, separated proteins are transferred to a membrane and probed.)
Experimental: Cells were washed once with isotonic ISO buffer (20 mM Hepes, pH 7.5, 150 mM NaCl, 0.5 mM EDTA, 1 mM DTT, 4 mM MgCl2, 1 mM PMSF, 15 μg/ml aprotinin), treated with 0.25% Triton X-100/ISO(+) buffer (ISO buffer supplemented with 0.5 mM ATP, 2% BSA) for 2 min. and washed three times with ISO (+) buffer.
The supernatant was filtrated using PD-10 column (Amersham Pharmacia Biotech, Piscataway, N.J.) preequilibrated with ISO buffer.
L-929 cells were cultured on the silicone substrate and Triton X-100 treated for 2 minutes, as indicated above. Thereafter, the Triton-X-100-insoluble cytoskeleton was washed 3 times with ISO(+) buffer to remove Triton X-100 and remaining Triton-soluble cellular components. After the third wash, the Triton X-100-insoluble cytoskeleton in ISO (+) buffer was left unstretched, stretched for 15 sec, or relaxed (pre-stretched and released from the stretch). The buffer was replaced with the lysate from L929 cells or 293 cells stably transfected with GFP paxillin and incubated for 2 minutes. The lysate was washed 4 times with ISO(+) buffer.
Cytoskeletons were stretched or unstretched. […]
The test system of another experiment is L-929 cells. The experiment is described as follows: Stretch-dependent paxillin assembly at focal contacts in intact cells (fluorescence microscopy / immunostaining). The experiment is classed as cell-based, Mouse. Conditions: intact L-929 cells, biaxial stretch 10%, genistein 100 μM, FIG. 4B.

Molecules are shown by their SMILES.

Consider `[Na+].[Na+].[Na+].[O]=[V]([O-])([O-])[O-]` [sodium orthovandate], for which the “stretch-dependent GFP paxillin binding” value in experiment [1] (1 mM added to lysates together with PAO, DTT excluded, FIG. 5C) is listed as “did not affect”.
`O=c1c(-c2ccc(O)cc2)coc2cc(O)cc(O)c12` [genistein]: the “amount of GFP paxillin bound to the stretched cytoskeletons” value in experiment [1] (cells treated prior to Triton extraction, subconfluent, FIG. 5A, 5B, 5D) is listed as “increase”. For the same molecule, the stretch-dependent paxillin accumulation result in the experiment with L-929 cells is given as “not inhibited”.
